pEC50: −log10 of the molar value.
Experiments:
[1] = test system: Plasmodium falciparum (3D7); assay: Anti-malarial screening, P. falciparum 3D7 growth in human RBC culture, SybrGreen fluorescence; type: cell-based; details: for inhibition at 10 µM: primary screen, 3D7, 60 hours; for pEC50: dose response, 10 μM to 1 nM dilution series, 3D7
Procedure: (§1) • a) Anti-malarial screening: Plasmodium falciparum (3D7; Malaria Research and Reference Reagent Resource Center ID NO: MRA-102) is cultured in the laboratory as per standard protocols [Moll et. al. 2008]. Briefly, P. falciparum is cultured using 2% hematocrit washed RBCs, separated from freshly collected human blood, in RPMI media containing glutamine, sodium bicarbonate and antibiotics. Parasites are routinely synchronized using 5% sorbitol treatment. Anti-malarial screens are carried out in two stages: 1) a primary screen at a fixed concentration of 10 μM to find out % inhibition of growth; and 2) a dose assay for finding out the IC50 of hits identified from the primary screen. In both assays the following steps are followed. 200 μL's of the diluted parasite culture (2% parasitemia and 2% hematocrit; at late ring stage), is added to each well in a 96 well plate pre-seeded with the compound of interest at the required concentration of 10 μM. The master stocks and dilutions of the compounds are prepared in cell culture grade DMSO. NOTE: DMSO only treatment control is done and the results are used for normalizing the data obtained from compound treatment. All compounds are plated in triplicates. Each 96 well plate also includes negative control (compound untreated culture) and positive control (standard anti-malarial treated culture). Standard anti-malarials used are chloroquine, artemisinine and atovaquone, each at 1 μM concentration. After plating, the culture is incubated in standard growth condition for 60 hours, after which the cultures are processed for testing the effect of compounds on parasite growth using SybrGreen staining and fluorescence measurements at 520 nm emission following excitation at 498 nm. Since only the parasites have DNA (as RBCs are devoid of nucleus), the SybrGreen signal is a direct indictor of parasite density in respective samples. Results are used to quantifying relative parasite growth (or conversely % inhibition of growth) in untreated, standard anti-malarial treated and test molecules treated P. falciparum cultures. Compounds showing greater than 80% reduction in parasitemia are selected from this primary screening for carrying out dose response analysis using the respective test molecules from 10 μM to 1 nM dilution series. Data from this experiment is used for the calculation of IC50 values for the respective test molecules. • b) Anti-toxoplasma screening: For screening bioactivity of test molecules against T. gondii, a transgenic line of the parasite expressing the luciferase gene is used. The parental parasite used to generate the TgLuc+ strain is a Type I (RH) virulent strain (ATCC reference 50174D), which can also be used for in vivo studies in mice, if needed. The tachyzoite stage of the parasites are routinely cultured in the laboratory using standard protocols [Roos et al., 1994. In brief, a confluent monolayer of Human Foreskin Fibroblast (HFF; ATCC reference SCRS-1041) cells in culture are used as the host cells for infection with tachyzoite stage T. gondii. The culture media used to grow parasites is standard complete DMEM (Gibco BRL, USA) containing glucose (5.5 mM), glutamine (2 mM), Hepes (25 mM) and 1% dialyzed bovine fetal calf serum (Gibco BRL, USA). For bioactivity assays, the HFF cells are grown in 96 well plates and each well is infected with 1×10^4 TgLuc+ parasitesin the presence of 10 μM of test molecules (in primary screens) in a total volume of 200 μL. After 2 days of incubation and growth in a 37° C. incubator maintaining 5% CO2, the 96 well plates are processed for luminescence measurements using the reagents in the luciferase assay kit (Promega, USA). […]

T. gondii = assay: Anti-toxoplasma screening, luciferase-expressing T. gondii (TgLuc+) in HFF cells, luminescence; type: cell-based; details: for inhibition at 10 µM: 48 h, primary screen, TgLuc+ tachyzoites in HFF cells, 2 days
Procedure: as §1

Structure (SMILES) | inhibition at 10 µM [1] [%] | pEC50 [1] | inhibition at 10 µM (T. gondii) [%] | pEC50 (T. gondii; HFF, dose response, 10 μM to 1 nM dilution series)
C[Si]1(C)CCN(Cc2ccc(-c3cc(C(=O)NCCN4CCCC4)c4cc(F)ccc4n3)cc2)CC1 [NDS 100950, 2-(4-((4,4-dimethyl-1,4-azasilinan-1-yl)methyl)phenyl)-6-fluoro-N-(2-(pyrrolidin-1-yl)ethyl)quinoline-4-carboxamide] | 95.7 | 7.22 | 95.2 | 5.40
C[Si]1(C)CCN(CCNC(=O)c2cc(-c3ccc(CN4CCOCC4)cc3)nc3ccc(F)cc23)CC1 [NDS 100951, N-(2-(4,4-dimethyl-1,4-azasilinan-1-yl)ethyl)-6-fluoro-2-(4-(morpholinomethyl)phenyl)quinoline-4-carboxamide] | 93.6 | 7.30 | 21.8 | –
C[Si]1(C)CCN(C(=O)c2cc(-c3ccc(CN4CCOCC4)cc3)nc3ccc(F)cc23)CC1 [NDS 101006, (4,4-dimethyl-1,4-azasilinan-1-yl)(6-fluoro-2-(4-(morpholinomethyl)phenyl)quinolin-4-yl)methanone] | 1.87 | – | 0 | –
C[Si]1(C)CCN(Cc2ccc(-c3cc(C(=O)N4CCOCC4)c4cc(F)ccc4n3)cc2)CC1 [NDS 101007, (2-(4-((4,4-dimethyl-1,4-azasilinan-1-yl)methyl)phenyl)-6-fluoroquinolin-4-yl)(morpholino)methanone] | 2.79 | – | 3 | –
C[Si]1(C)CCN(Cc2ccc(-c3cc(C(=O)NCCN4CCOCC4)c4cc(F)ccc4n3)cc2)CC1 [NDS 101008, 2-(4-((4,4-dimethyl-1,4-azasilinan-1-yl)methyl)phenyl)-6-fluoro-N-(2-morpholinoethyl)quinoline-4-carboxamide] | 95.9 | 5.90 | 3 | –
C[Si]1(C)CCN(Cc2ccc(-c3cc(C(=O)Nc4ccccn4)c4cc(F)ccc4n3)cc2)CC1 [NDS 101009, 2-(4-((4,4-dimethyl-1,4-azasilinan-1-yl)methyl)phenyl)-6-fluoro-N-(pyridin-2-yl)quinoline-4-carboxamide] | 97.1 | 6.09 | 31 | –
C[Si](C)(C)CCNC(=O)c1cc(-c2ccc(CN3CCOCC3)cc2)nc2ccc(F)cc12 [NDS 101037, 6-fluoro-2-(4-(morpholinomethyl)phenyl)-N-(2-(trimethylsilyl)ethyl)quinoline-4-carboxamide] | 9.16 | – | 45 | –
C[Si]1(C)CCN(Cc2ccc(-c3cc(C(=O)NCCN4CCCCC4)c4cc(F)ccc4n3)cc2)CC1 [NDS 101074, 2-(4-((4,4-dimethyl-1,4-azasilinan-1-yl)methyl)phenyl)-6-fluoro-N-(2-(piperidin-1-yl)ethyl)quinoline-4-carboxamide] | 78.8 | 6.95 | – | –
CN1CCN(CCNC(=O)c2cc(-c3ccc(CN4CC[Si](C)(C)CC4)cc3)nc3ccc(F)cc23)CC1 [NDS 101075, 2-(4-((4,4-dimethyl-1,4-azasilinan-1-yl)methyl)phenyl)-6-fluoro-N-(2-(4-methylpiperazin-1-yl)ethyl)quinoline-4-carboxamide] | 95.2 | 6.39 | – | –
C[Si]1(C)CCN(Cc2ccc(-c3cc(C(=O)NCCO)c4cc(F)ccc4n3)cc2)CC1 [NDS 101076, 2-(4-((4,4-dimethyl-1,4-azasilinan-1-yl)methyl)phenyl)-6-fluoro-N-(2-hydroxyethyl)quinoline-4-carboxamide] | 81.4 | 5.21 | – | –
C[Si]1(C)CCN(Cc2ccc(-c3cc(C(=O)NCCN4CCSCC4)c4cc(F)ccc4n3)cc2)CC1 [NDS 101077, 2-(4-((4,4-dimethyl-1,4-azasilinan-1-yl)methyl)phenyl)-6-fluoro-N-(2-thiomorpholinoethyl)quinoline-4-carboxamide] | 95.5 | 6.02 | – | –
